According to US5641780A, “Pyrrolo-indole derivatives” (priority 1994, dated 1997):
Like-named read-outs stand apart in the source and are kept apart here.

Tests used:
[1] = tested on: HeLaS3 cells; assay: Growth Inhibitory Effect Against HeLaS3 cells; assay type: cell-based
Protocol: HeLaS3 cells were suspended in MEM medium containing 10% fetal calf serum and 2 mM glutamine to a concentration of 2.67×10^4 cells/ml. The cell suspension thus prepared was put into wells of a 24-well culture plate in an amount of 0.75 ml per well. After the cells were incubated in a CO2 incubator overnight at 37° C., Compound (I) which had been appropriately diluted with a culture medium was added to each well in an amount of 0.25 ml.
The cells were further incubated in the CO2 incubator for 72 hours, and the culture supernatant was removed. Then, the cells were dispersed in a solution of trypsin and EDTA, and recovered. The number of the cells was counted using a cell counter. The concentration of Compound (I) at which the growth of the cells is inhibited by 50% was calculated by comparing the number of untreated cells with the number of the cells treated with Compound (I) at known concentrations, and the value was defined as IC50.

[2] = tested on: Sarcoma 180 tumor; assay: Therapeutic Effect on Sarcoma 180 Tumor; assay type: in vivo, male ddY-strain mice; conditions: determined seven days after implantation; for response vs control in vivo at 0.5 mg/kg: read-out: T/C (average tumor volume treated / control), dose 0.50 mg/kg, intravenous, one day after implantation
Protocol: Five male ddY-strain mice each weighing 18-20 g were used for each group as test animals, and 5×10^5 Sarcoma 180 tumor cells were implantedat the axilla subcutaneously. One day after the implantation, 0.2 ml of a physiological saline containing Compound (I) at the concentration shown in Table 3 was intravenously administered to each mouse. T/C [T: average tumor volume (mm^3) of the group treated with the test compound, C: average tumor volume (mm^3) of the control group (to which 0.2 ml of a physiological saline was intravenously administered)] was determined seven days after the implantation.

[3] = tested on: ddY-strain male mice; assay: Acute toxicity (minimum lethal dose); assay type: in vivo; conditions: intravenous, mortality at 14 days after administration
Protocol: Compound (I) was intravenously administered to ddY-strain male mice each weighing 20±1 g. MLD (minimum lethal dose) was determined by observing the mortality at 14 days after administration.

[4] = tested on: melanoma B-16; conditions: cited from earlier work
[5] = tested on: various bacteria; conditions: cited from earlier work
[6] = Homo sapiens, HeLa S3, 72 hours, 37° C., cell counter, read-out: IC50, growth inhibition of HeLaS3 cells
[7] = Mus musculus, Sarcoma-180, 168 h, dose 8.0 mg/kg, intravenous, one day after implantation, read-out: T/C (average tumor volume treated / control)
[8] = Homo sapiens, HeLa S3, 72 h, read-out: IC50, growth inhibition of HeLaS3 cells, 72 hours, 37° C., cell counter
[9] = Mus musculus, Sarcoma-180, iv, 168 h
[10] = Mus musculus, Sarcoma-180, 168 h, dose 4.0 mg/kg, intravenous, one day after implantation, read-out: T/C (average tumor volume treated / control)
[11] = Mus musculus, Sarcoma-180, iv, 168 h, read-out: T/C (average tumor volume treated / control), dose 4.0 mg/kg, intravenous, one day after implantation
[12] = Mus musculus, Sarcoma-180, 168 h, dose 2.0 mg/kg, intravenous, one day after implantation, read-out: T/C (average tumor volume treated / control)
[13] = Mus musculus, Sarcoma-180, iv, 168 h, read-out: T/C (average tumor volume treated / control), dose 8.0 mg/kg, intravenous, one day after implantation
[14] = read-out: IC50, growth inhibition of HeLaS3 cells, 72 hours, 37° C., cell counter
[15] = Mus musculus, Sarcoma-180, iv, 168 h, read-out: T/C (average tumor volume treated / control), dose 2.0 mg/kg, intravenous, one day after implantation

COC(=O)c1c(C)[nH]c2c(OCc3ccccc3)cc3c(c12)C(CBr)CN3C(=O)c1cc2cc(OC)c(OC)c(OC)c2[nH]1 (centres unmarked) [Compound 1]
IC50 [1, 6]: 5100 pM | response vs control in vivo at 8 mg/kg [2, 7]: 19%

COC(=O)c1c(C)[nH]c2c(OC)cc3c(c12)C(CBr)CN3C(=O)c1cc2cc(OC)c(OC)c(OC)c2[nH]1 (centres unmarked) [Compound 2]
IC50 [1, 6]: 6300 pM | response vs control in vivo at 8 mg/kg [2, 7]: 27%

COC(=O)c1c(C)[nH]c2c(OS(C)(=O)=O)cc3c(c12)C(CBr)CN3C(=O)c1cc2cc(OC)c(OC)c(OC)c2[nH]1 (centres unmarked) [Compound 4]
IC50 [1, 6]: 4000 pM | response vs control in vivo at 16 mg/kg ([2]; Mus musculus, Sarcoma-180, 168 h, dose 16 mg/kg, intravenous, one day after implantation, read-out: T/C (average tumor volume treated / control)): 20%

COC(=O)c1c(C)[nH]c2c(OC(C)=O)cc3c(c12)C(CBr)CN3C(=O)c1cc2cc(OC)c(OC)c(OC)c2[nH]1 (centres unmarked) [Compound 6]
IC50 [1, 8]: 130 pM | response vs control in vivo at 0.5 mg/kg [2, 9]: 18% | MLD (minimum lethal dose) [3]: 0.25 mg/kg

COC(=O)Oc1cc2c(c3c(C(=O)OC)c(C)[nH]c13)C(CBr)CN2C(=O)c1cc2cc(OC)c(OC)c(OC)c2[nH]1 (centres unmarked) [Compound 7]
IC50 [1, 8]: 82 pM | response vs control in vivo at 0.5 mg/kg [2, 9]: 10% | MLD (minimum lethal dose) [3]: 0.50 mg/kg

COC(=O)c1c(C)[nH]c2c(OC(=O)Oc3ccccc3)cc3c(c12)C(CBr)CN3C(=O)c1cc2cc(OC)c(OC)c(OC)c2[nH]1 (centres unmarked) [Compound 8]
IC50 [1, 8]: 51 pM | response vs control in vivo at 0.5 mg/kg [2, 9]: 9% | MLD (minimum lethal dose) [3]: 0.50 mg/kg

COC(=O)c1c(C)[nH]c2c(OC(=O)NCC(=O)O)cc3c(c12)C(CBr)CN3C(=O)c1cc2cc(OC)c(OC)c(OC)c2[nH]1 (centres unmarked) [Compound 10]
IC50 [1, 6]: 230 pM | response vs control in vivo at 4 mg/kg [2, 10]: 10% | MLD (minimum lethal dose) [3]: > 4.0 mg/kg

COC(=O)c1c(C)[nH]c2c(OC(=O)NC(Cc3ccccc3)C(=O)O)cc3c(c12)C(CBr)CN3C(=O)c1cc2cc(OC)c(OC)c(OC)c2[nH]1 (centres unmarked) [Compound 11]
IC50 [1, 6]: 170 pM | response vs control in vivo at 4 mg/kg [2, 10]: 7% | MLD (minimum lethal dose) [3]: > 4.0 mg/kg

COC(=O)c1c(C)[nH]c2c(OC(C)=O)cc3c(c12)C(CBr)CN3C(=O)/C=C/c1ccc(OC)cc1 (centres unmarked) [Compound 14]
IC50 [1, 8]: 310 pM | response vs control in vivo at 4 mg/kg [2, 11]: 22% | MLD (minimum lethal dose) [3]: 2.0 mg/kg

COC(=O)c1c(C)[nH]c2c(OC(=O)SC)cc3c(c12)C(CBr)CN3C(=O)/C=C/c1ccc(OC)cc1 (centres unmarked) [Compound 15]
IC50 [1, 6]: 430 pM | response vs control in vivo at 1 mg/kg ([2]; Mus musculus, Sarcoma-180, 168 h, dose 1.0 mg/kg, intravenous, one day after implantation, read-out: T/C (average tumor volume treated / control)): 36%

COC(=O)c1c(C)[nH]c2c(OC(=O)c3cccnc3)cc3c(c12)C(CBr)CN3C(=O)/C=C/c1ccc(OC)cc1 (centres unmarked) [Compound 16]
IC50 [1, 6]: 400 pM | response vs control in vivo at 2 mg/kg [2, 12]: 33%

COC(=O)c1c(C)[nH]c2c(OC(=O)NN3CCN(C)CC3)cc3c(c12)C(CBr)CN3C(=O)/C=C/c1ccc(OC)cc1 (centres unmarked) [Compound 18]
IC50 [1, 8]: 540 pM | response vs control in vivo at 8 mg/kg [2, 13]: 18%

COC(=O)c1c(C)[nH]c2c(OC(=O)NN3CCN(C)CC3)cc3c(c12)C(CBr)CN3C(=O)/C=C/c1ccc(OC)cc1 (centres unmarked) [Compound 19]
IC50 [1, 14]: 530 pM | response vs control in vivo at 4 mg/kg [2, 11]: 26% | MLD (minimum lethal dose) [3]: > 8.0 mg/kg

COC(=O)c1c(C)[nH]c2c(OC(=O)NN3CCOCC3)cc3c(c12)C(CBr)CN3C(=O)/C=C/c1ccc(OC)cc1 (centres unmarked) [Compound 20]
IC50 [1, 6]: 6700 pM

COC(=O)c1c(C)[nH]c2c(OC(=O)c3nccnc3N)cc3c(c12)C(CBr)CN3C(=O)/C=C/c1ccc(OC)cc1 (centres unmarked) [Compound 21]
IC50 [1, 6]: 380 pM

COC(=O)c1c(C)[nH]c2c(OC(=O)c3ccc(N)c(N)c3)cc3c(c12)C(CBr)CN3C(=O)/C=C/c1ccc(OC)cc1 (centres unmarked) [Compound 22]
IC50 [1, 6]: 2700 pM

COC(=O)c1c(C)[nH]c2c(OC(=O)c3cccc(N(C)C)c3)cc3c(c12)C(CBr)CN3C(=O)/C=C/c1ccc(OC)cc1 (centres unmarked) [Compound 24]
IC50 [1, 6]: 430 pM | response vs control in vivo at 2 mg/kg [2, 12]: 31%

CCN(CC)c1ccc(C(=O)Oc2cc3c(c4c(C(=O)OC)c(C)[nH]c24)C(CBr)CN3C(=O)/C=C/c2ccc(OC)cc2)cc1 (centres unmarked) [Compound 25]
IC50 [1, 8]: 13000 pM | response vs control in vivo at 2 mg/kg [2, 15]: 14% | MLD (minimum lethal dose) [3]: 2.0 mg/kg

COC(=O)c1c(C)[nH]c2c(OC(=O)c3ccc(-n4cccc4)cc3)cc3c(c12)C(CBr)CN3C(=O)/C=C/c1ccc(OC)cc1 (centres unmarked) [Compound 26]
IC50 [1, 8]: 1700 pM | response vs control in vivo at 2 mg/kg [2, 15]: 15% | MLD (minimum lethal dose) [3]: 2.0 mg/kg

COC(=O)c1c(C)[nH]c2c(OC(=O)c3ccc(CN4CCN(C)CC4)cc3)cc3c(c12)C(CBr)CN3C(=O)/C=C/c1ccc(OC)cc1 (centres unmarked) [Compound 28]
IC50 [1, 8]: 830 pM | response vs control in vivo at 2 mg/kg [2, 15]: 21% | MLD (minimum lethal dose) [3]: 2.0 mg/kg

COC(=O)c1c(C)[nH]c2c(OC(=O)NN(C)C)cc3c(c12)C(CBr)CN3C(=O)/C=C/c1ccc(OC)cc1 (centres unmarked) [Compound 29]
IC50 [1, 6]: 430 pM | response vs control in vivo at 2 mg/kg [2, 12]: 18% | MLD (minimum lethal dose) [3]: 2.0 mg/kg

COC(=O)c1c(C)[nH]c2c(OC(=O)N(C)N)cc3c(c12)C(CBr)CN3C(=O)/C=C/c1ccc(OC)cc1 (centres unmarked) [Compound 30]
IC50 [1, 8]: 940 pM | response vs control in vivo at 2 mg/kg [2, 15]: 22% | MLD (minimum lethal dose) [3]: 2.0 mg/kg

COC(=O)c1c(C)[nH]c2c(OC(=O)NN3CCC(N4CCCCC4)CC3)cc3c(c12)C(CBr)CN3C(=O)/C=C/c1ccc(OC)cc1 (centres unmarked) [Compound 32]
IC50 [1, 8]: 800 pM | response vs control in vivo at 8 mg/kg [2, 13]: 10% | MLD (minimum lethal dose) [3]: > 8.0 mg/kg

COC(=O)c1c(C)[nH]c2c(OC(=O)CSCC(=O)O)cc3c(c12)C(CBr)CN3C(=O)/C=C/c1ccc(OC)cc1 (centres unmarked) [Compound 33]
IC50 [1, 8]: 330 pM | response vs control in vivo at 2 mg/kg [2, 15]: 17% | MLD (minimum lethal dose) [3]: 2.0 mg/kg

COC(=O)c1c(C)[nH]c2c(OC(=O)c3ccc(CNC(=O)OC(C)(C)C)cc3)cc3c(c12)C(CBr)CN3C(=O)/C=C/c1ccc(OC)cc1 (centres unmarked) [Compound 34]
IC50 [1, 6]: 520 pM | response vs control in vivo at 2 mg/kg [2, 12]: 28%

COC(=O)c1c(C)[nH]c2c(OC(=O)c3ccc(CN)cc3)cc3c(c12)C(CBr)CN3C(=O)/C=C/c1ccc(OC)cc1 (centres unmarked) [Compound 36]
IC50 [1, 6]: 1000 pM | response vs control in vivo at 4 mg/kg [2, 10]: 35%

COC(=O)c1c(C)[nH]c2c(OC(=O)NN3CCN(C)CC3)cc3c(c12)C(CBr)CN3C(=O)/C=C/c1ccc(OC)cc1 (centres unmarked) [Compound 37]
IC50 [1, 14]: 910 pM | T/C (average tumor volume treated / control) ([2]; dose 8.0 mg/kg, intravenous, one day after implantation, 8 mg/kg): 0.27 | MLD (minimum lethal dose) [3]: > 8.0 mg/kg

CNN(C)C(=O)Oc1cc2c(c3c(C(=O)OC)c(C)[nH]c13)C(CBr)CN2C(=O)/C=C/c1ccc(OC)cc1 (centres unmarked) [Compound 38]
IC50 [1, 8]: 1500 pM | response vs control in vivo at 4 mg/kg [2, 11]: 14% | MLD (minimum lethal dose) [3]: 4.0 mg/kg

COC(=O)c1c(C)[nH]c2c(OC(=O)CN3CCN(C)CC3)cc3c(c12)C(CBr)CN3C(=O)/C=C/c1ccc(OC)cc1 (centres unmarked) [Compound 39]
IC50 [1, 8]: 360 pM | MLD (minimum lethal dose) [3]: 4.0 mg/kg

COC(=O)c1c(C)[nH]c2c(OC(=O)CN3CCC(N4CCCCC4)CC3)cc3c(c12)C(CBr)CN3C(=O)/C=C/c1ccc(OC)cc1 (centres unmarked) [Compound 40]
IC50 [1, 8]: 290 pM | MLD (minimum lethal dose) [3]: 2.0 mg/kg

COC(=O)c1cc2c([nH]1)C(=O)C=C1N(C(=O)c3cc4cc(OC)c(OC)c(OC)c4[nH]3)CC3CC123 (centres unmarked) [DC113]
antitumor activity against melanoma B-16 [4]: anti-tumor activity against melanoma B-16 | antibacterial activity against various bacteria [5]: antibacterial activity against various bacteria

COC(=O)[C@]1(C)NC2=C(C1=O)[C@@]13C[C@@H]1CN(C(=O)c1cc4cc(OC)c(OC)c(OC)c4[nH]1)C3=CC2=O [DC-88A]
antitumor activity against melanoma B-16 [4]: anti-tumor activity against melanoma B-16 | antibacterial activity against various bacteria [5]: antibacterial activity against various bacteria
